Source: article PMC9127186, “Molecular Basis Underlying Hepatobiliary and Renal Excretion of Phenolic Acids of Salvia miltiorrhiza Roots (Danshen)” (Frontiers in Pharmacology, 2022)
pIC50: −log10 of the molar value.

What was measured:
OATP1B1 = system: OATP1B1; design: method as in Li et al., 2019; settings: ref Li et al., 2019; read-out: half maximum inhibitory concentration (IC50) for OATP1B1; cited from earlier work
rat Oct3 = biological target: T1, rat Oct3 (Rattus norvegicus, UniProt O88446)
T1 sequence (O88446 1-551): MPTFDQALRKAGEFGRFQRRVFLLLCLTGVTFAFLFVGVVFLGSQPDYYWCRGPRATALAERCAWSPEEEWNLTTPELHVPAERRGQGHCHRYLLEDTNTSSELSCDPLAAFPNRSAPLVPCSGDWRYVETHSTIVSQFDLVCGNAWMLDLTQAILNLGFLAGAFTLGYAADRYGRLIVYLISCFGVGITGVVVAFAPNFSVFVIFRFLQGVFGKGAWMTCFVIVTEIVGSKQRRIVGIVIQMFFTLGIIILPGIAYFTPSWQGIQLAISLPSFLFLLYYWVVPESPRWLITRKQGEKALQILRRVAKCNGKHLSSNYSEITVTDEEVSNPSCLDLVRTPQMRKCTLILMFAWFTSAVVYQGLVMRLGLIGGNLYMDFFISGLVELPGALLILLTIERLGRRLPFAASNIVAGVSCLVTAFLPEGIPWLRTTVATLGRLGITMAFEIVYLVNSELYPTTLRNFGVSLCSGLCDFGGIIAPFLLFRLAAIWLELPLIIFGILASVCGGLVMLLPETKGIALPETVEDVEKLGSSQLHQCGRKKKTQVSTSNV

For salvianolic acid B, the pIC50 (OATP1B1) is listed as 4.42.
For O=C(/C=C/c1ccc(O)c(O)c1/C=C/c1ccc(O)c(O)c1)O[C@H](Cc1ccc(O)c(O)c1)C(=O)O [Salvianolic acid A, salvianolic acid A], the “TransportTC/TransportMC ratio (net transport ratio)” value (rat Oct3) was 1.19 ± 0.14.
